Experiments:
[1] = system: CCD1079SK cells; assay: Evaluation of the state of undifferentiation of SIRIUS cells by cytoimmunostaining of undifferentiated marker genes; type: cell-based, human; conditions: sample 1 20 μM, 30° C., 3 days; fluorescent immunostaining
Description: The state of undifferentiation of the SIRIUS cells (cells forming clusters) produced using the sample 1 obtained in example 1 was evaluated by cytoimmunostaining (fluorescent immunostaining) of the state of expression of undifferentiated marker genes (endogenous Oct3/4, Nanog, Sox2, TRA1-81, SSEA-3, and ALP), i.e., the state of expression of protein that is a gene product of these genes (this protein is also referred to as “undifferentiated marker protein” below). The details of the evaluation test are as follows.
The SIRIUS cells according to this working example were produced by culture under the same conditions as the culture conditions given in example 1 of Working Example 2 with the following exceptions: a cell culture chamber having 1 well per slide (culture area of 19 mm×44 mm) (also referred to as a slide chamber) was used as the culture chamber, 1.5×10^5 cells/well was used for the number of cells per well; and 1 mL was used for the amount of medium per well. The status of differentiation of the SIRIUS cells was evaluated by cytoimmunostaining as follows on the 3rd day after the start of the main culture (culture in the presence of peptide).
Fixing, a permeabilization treatment, and a blocking treatment were first carried out on the cells in each test group. Specifically, the medium was removed from the culture chamber (slide chamber) in each test group once the culture for 3 days in the presence of peptide had been completed and the cells in each slide chamber were washed with cold PBS. PBS containing 4 volume % paraformaldehyde (4% paraformaldehyde solution) was then added to the slide chamber and the cells were fixed by standing for 15 minutes on ice. After the prescribed time had elapsed, the 4% paraformaldehyde solution was removed and the cells in the slide chamber were washed with cold PBS.
PBS containing 0.25 volume % Triton (registered trademark) X-100 (0.25% Triton (registered trademark) X-100 solution) was then added to each slide chamber and a permeabilization treatment was carried out on the cell membrane by standing for 15 minutes on ice. After the prescribed time had elapsed, the 0.25% Triton (registered trademark) X-100 solution was removed and the cells in the slide chamber were washed with cold PBS.
PBS containing 1% BSA (1% BSA-containing PBS) was added to each slide chamber and a blocking treatment was carried out for 1 hour at room temperature. After the prescribed time had elapsed, the 1% BSA-containing PBS was removed and the cells in the slide chamber were washed with cold PBS.
The primary antibodies (primary antibody dilution)—obtained by the dilution at the prescribed ratio (dilution ratio shown in Table 2) with 0.1% BSA/PBS of primary antibody that recognized the particular undifferentiated marker protein—were respectively added to the slide chambers and standing was carried out overnight (approximately 16 to 18 hours) at 4° C. After the prescribed time had elapsed, the primary antibody dilution was removed and washing with cold PBS was performed.
Table 2 gives the undifferentiation markers used to evaluate the status of expression in this working example, the details for the primary antibody (product name, product number, immunized animal, antibody class) used to recognize the particular undifferentiated marker protein, and the dilution ratio for the primary antibody. Of the primary antibodies given in Table 2, the anti-Oct3/4 antibody was from Santa Cruz Biotechnology, Inc. and the anti-Nanog antibody, anti-Sox2 antibody, anti-TRA1-81 antibody, anti-SSEA-3 antibody, and anti-ALP antibody were from Abcam plc.
Secondary antibody (secondary antibody dilution)—obtained by the 1000× dilution with 0.1% BSA/PBS of a secondary antibody that detected the particular primary antibody—was added to the slide chamber and standing was carried out in the dark for 2 hours at room temperature. After the prescribed time had elapsed, the secondary antibody dilution was removed and washing with cold PBS was performed. […]

[2] = system: CCD1079SK cells; assay: Production of SIRIUS cells: cluster formation and cell morphology of fibroblasts cultured with peptide (phase-contrast microscopy); type: cell-based, human; conditions: for cell morphology in the culture: days 1 to 6
From the text: SIRIUS cells were produced using the sample 1 obtained in Working Example 1. CCD1079SK cells (ATCC (registered trademark) CRL-2097), which are a fibroblast cell culture line derived from human skin tissue, were used as the sample cells. The details of the tests are as follows.
The CCD1079SK cells, which had been stored frozen, were inoculated to six culture dishes with a diameter of 60 mm (60 mm dishes) to provide a cell density of 3×10^5 cells/well. Specifically, the thawed CCD1079SK cells were first suspended in ordinary Dulbecco's modified Eagle's medium (DMEM medium) to produce a cell suspension having a cell density of 1.5×10^5 cells/mL and 2 mL of this cell suspension was introduced into the 60 mm dish. This DMEM medium contained 10% FBS, 100 units/mL of penicillin, and 100 μg/mL of streptomycin in ordinary DMEM (Wako Pure Chemical Industries, Ltd., Cat. No. 043-30085).
The CCD1079SK cells inoculated into the 60 mm dish were precultured for several hours (approximately 6 hours) in an incubator under conditions of 5% CO2 and 37° C.
After the preculture for several hours, the CCD1079SK cells were subjected to a main culture at one of the culture conditions indicated for examples 1 to 6 in Table 1. The specific culture conditions are given in the following. […]
The culture conditions according to example 5 are as follows: the stock solution of sample 1 is added, in an amount that provides a peptide concentration in the medium of 20 μM, to the DMEM medium (in the 60 mm dish) on which the CCD1079SK cells are being cultured, and culture is carried out under a temperature condition of 13° C. […]
Other than the culture temperature and the presence/absence of peptide addition, the same culture conditions were used in all of examples 1 to 6. Thus, in all of examples 1 to 6, culture was carried out in a 5% CO2 atmosphere using a DMEM medium with the same composition (same as that used in the preculture). In addition, in all of examples 1 to 6, culture exchange and peptide addition (addition of PBS (−) in the peptide-free groups) were carried out every two days after the start of the main culture.
Observation of the cell morphology using a phase-contrast microscope was carried out in each example on the 1st, 2nd, 3rd, 4th, 5th, 6th, 7th, 9th, 13th, 21st, 27th, and 34th days after the start of the main culture (cell culture in the presence of peptide). Among the images in FIG. 2, the micrographs given for example 3 are micrographs (images) showing cell aggregates (clusters) that were rarely identified when tests were independently repeated a plurality of times using the same conditions as in example 3.

[3] = example 2: sample 1 20 μM, 37° C.

Sequence: CKSKSRRSC [sample 1]
- expression of undifferentiated marker gene ALP by cells constituting the clusters [1]: strongly expressed
- expression of undifferentiated marker gene Nanog by cells constituting the clusters [1]: strongly expressed
- expression of undifferentiated marker gene Oct3/4 by cells constituting the clusters [1]: strongly expressed
- expression of undifferentiated marker gene SSEA-3 by cells constituting the clusters [1]: strongly expressed
- expression of undifferentiated marker gene Sox2 by cells constituting the clusters [1]: strongly expressed
- expression of undifferentiated marker gene TRA1-81 by cells constituting the clusters [1]: strongly expressed
- time to formation of aggregates (clusters) of aggregated cells after the start of the main culture ([2]; example 1: sample 1 20 μM, 30° C., 60 mm dish): ≤ 3 days
- probability that at least 1 cluster was formed in the 60 mm dish within the 3rd day after the start of culture ([2]; example 1 conditions: 20 μM, 30° C., 26 times in 27 tests): at least 95%
- number (frequency) of clusters formed per one 60 mm dish, average ([2]; example 1 conditions: 20 μM, 30° C., within the 3rd day): 3
- formation of cell aggregates (clusters) within 3 days after the start of the main culture [2, 3]: did not form, or their formation frequency was very low
- persistence of the rarely observed clusters [2, 3]: disappeared by the 34th day
- cell morphology in the culture ([2]; example 5: sample 1 20 μM, 13° C.): very close to a dead cell morphology
- cell morphology in the culture ([2]; example 6: sample 1 20 μM, 22° C.): very close to a dead cell morphology

— patent publication US10138469B2, “Synthetic peptide and use thereof” (Toagosei Co., Ltd., priority 2014, dated 2018)
